Measured values: patent US5705649A, “Protein staining compositions and methods” (Promega Corporation, priority 1995, dated 1998)

How the values were obtained:
[1] = Spectral analyses of Coomassie Blue R and Promega Green 1, 2, 3; format: physicochemical
Experimental: The three solutions of Promega Green 1, 2, and 3, from examples 1, 2 and 3 respectively, were diluted approximately 500 fold into a 1:1 solution of methanol:water. The spectra of the resulting solutions and of a 12 μg/ml solution of Coomassie Blue R (in 1:1 methanol:water) were recorded from 700 to 340 nm versus 1:1 methanol:water. […] All of the derivatives gave essentially identical spectra; however, the maximal absorbance of the diluted Promega Green i was about twice that seen for the other derivatives. The derivatives had two peak absorptions in the region of the spectrum scanned, a major peak at around 630 nm and a second peak at around 440 nm. The following absorbances were recorded at the peaks near 630 nm for the three Promega Green dye solutions (diluted 1:500 in 1:1 methanol:water): […]

[2] = tested on: bovine serum albumin (BSA); experiment: Effect of solution pH on absorption in presence and absence of protein; format: physicochemical
Experimental: The effect of solution pH on the absorption of Promega Green 1 in the presence and absence of added protein was studied by dilution of Promega Green 1 solution at a ratio of 1:1000 (v/v) into various solutions containing 0 or 100 μg of protein (bovine serum albumin (BSA)) per ml of liquid. The solutions tested were highly acidic (1N HCl), moderately acidic (2% acetic acid), weakly acidic (50 mM ammonium acetate pH 4.0), weakly basic (50 mM ammonium bicarbonate pH 7.8), and strongly basic (500 mM Tris base). The absorption spectra of the solutions were measured from […] and the peak absorbances are reported below.

[3] = tested on: Promega Mid-Range Molecular Weight Markers; experiment: Recovery of proteins separated by gel electrophoresis; details: re-run 10% SDS-PAGE, 30% methanol, 4% acetic acid, 1 hour
Experimental: An 8% SDS-PAGE gel was prepared as described above and loaded with Promega Mid-Range Molecular Weight Markers at a concentration of 4 μg of each protein per lane. The gel was run at 160 V with 200 μl of octyl Coomassie (Promega Green 1) stock solution in the cathode buffer (125 ml).
After electrophoresis, the gel segments containing the 97, 66, 55, 43, and 40 kilodalton proteins were excised from four consecutive lanes, minced, and placed in individual 1.5 ml Eppendorf tubes containing 0.5 ml of 50 mM ammonium bicarbonate pH 7.8 containing 0.02% SDS (w/v). The tubes were then incubated at 50° C. for 14 hours.
After that time, the tubes were spun for 1 minute in a microfuge to pellet the minced acrylamide and 0.47 ml of the supernate was removed to new 1.5 ml tubes. Two of the four solutions from each of the eluted protein samples were dried in a Speed-Vac, the other pair was first ultrafiltered through a 5000 dalton cut-off Milligen centrifugal concentrator by centrifugation in a microfuge for 30 minutes. These concentrated solutions were then dried in a Speed Vac.
The dried samples were resuspended in 25 μl of 1× loading buffer and heated at 95° C. for 10 minutes. These samples were then loaded in two 15-well, 0.75 mm 10% SDS-PAGE gels made as above. The gels were then run at 160 V with 200 μl of Promega Green 1 stock solution in the cathode buffer (125 ml). […]

[4] = tested on: bovine serum albumin; experiment: Analysis of partial proteolytic products (Cleveland analysis)
Experimental: The comparison of proteins by analysis of the products of partial proteolysis using SDS-PAGE electrophoresis has been reported extensively in the literature. This analysis, termed Cleveland analysis, can provide important information on many different types of covalent changes that can occur on proteins.
An 8% SDS-PAGE gel was made as described in Example 5. A 5 μl sample of 1× loading buffer containing 4 μg of Bovine serum albumin previously heated at 95° C. for 5 minutes was placed in several of the wells and electrophoresis was performed as described in Example 5.
A second […] 16% SDS-PAGE gel was made as described in Example 5.
After electrophoresis, segments of the gel containing the BSA sample were excised by use of a razor blade and loaded into three of the sample wells of the second, 16 % gel. Then, 20 μl of 1× loading buffer containing 0.5 μg of Endoprotease Glu C, 0.5 μg of Endoprotease Lys C and 0.1 μg of Alkaline Protease, respectively, was added to individual wells containing the gel slices. Also, 5 μl of a solution of 4 μg of BSA in 1× loading buffer that was previously heated to 95° C. for 15 minutes was placed in a second set of three wells. To each of these three samples was added individual 20 μl solutions containing 0.5 μg of Endoprotease Glu C, 0.5 μg of Endoprotease Lys C, or 0.1 μg of Alkaline Protease, respectively. […]

[5] = moderately acidic (2% acetic acid), protein absent
[6] = moderately acidic (2% acetic acid), protein present (100 μg/ml BSA)
[7] = strongly acidic (1N HCl), protein absent
[8] = strongly acidic (1N HCl), protein present (100 μg/ml BSA)
[9] = strongly basic (500 mM Tris base), protein absent
[10] = strongly basic (500 mM Tris base), protein present (100 μg/ml BSA)
[11] = weakly acidic (50 mM ammonium acetate pH 4.0), protein absent
[12] = weakly acidic (50 mM ammonium acetate pH 4.0), protein present (100 μg/ml BSA)
[13] = weakly basic (50 mM ammonium bicarbonate pH 7.8), protein absent
[14] = weakly basic (50 mM ammonium bicarbonate pH 7.8), protein present (100 μg/ml BSA)

Compound: CCCCCCCC(=O)N(c1ccc(OCC)cc1)c1ccc(C(=C2C=CC(=[N+](CC)Cc3cccc(S(=O)(=O)[O-])c3)C=C2)c2ccc(N(CC)Cc3cccc(S(=O)(=O)O)c3)cc2)cc1 [Promega Green 1]
- Absorbance at the peak near 630 nm ([1]; diluted 1:500 in 1:1 methanol:water): 1.66
- maximal absorbance relative to the other derivatives ([1]; diluted approximately 500 fold): about twice
- ABS (peak absorbance) [2, 5]: 0.83
- absorption max [2, 5]: 631 nm
- ABS (peak absorbance) [2, 6]: 0.98
- absorption max [2, 6]: 635 nm
- ABS (peak absorbance) [2, 7]: 0.27
- absorption max [2, 7]: 649 nm
- ABS (peak absorbance) [2, 8]: 0.39
- absorption max [2, 8]: 641 nm
- ABS (peak absorbance) [2, 9]: 0.22
- absorption max [2, 9]: 637 nm
- ABS (peak absorbance) [2, 10]: 0.128
- absorption max [2, 10]: 637 nm
- ABS (peak absorbance) [2, 11]: 0.49
- absorption max [2, 11]: 636 nm
- ABS (peak absorbance) [2, 12]: 0.25
- absorption max [2, 12]: 638 nm
- ABS (peak absorbance) [2, 13]: 0.49
- absorption max [2, 13]: 636 nm
- ABS (peak absorbance) [2, 14]: 0.26
- absorption max [2, 14]: 637 nm
- detection of recovered proteins [3]: the expected protein bands could be seen in the lanes
- visibility of partial proteolytic pattern ([4]; 30% methanol, 4% acetic acid enhancement): readily apparent in a very short period of time
- interference with Cleveland type protein analysis ([4]; Endoprotease Glu C, Endoprotease Lys C, Alkaline Protease): does not interfere with Cleveland type protein analysis
